Like-named read-outs stand apart in the source and are kept apart here.
Key:
[1] = target: pG-IB sPLA2 (Sus scrofa, UniProt P00592); assay: Inhibition of sPLA2 activity, colorimetric lecithin/red phenol assay, group IB; format: biochemical, porcine
Description: (§3) Briefly, the substrate consisted of 3.5 mM lecithin in a mixture of 3 mM NaTDC “Sodium taurodeoxycholate”, 100 mM NaCl, 10 mM CaCl2, and 0.055 mM red phenol as colorimetric indicator in 100 ml H2O. The pH of the reaction mixture was adjusted to 7.6. The human group IB (pG-IB), IIA (hG-IIA), V (hG-V), X (hG-X), and XII (hG-XII) sPLA2 were solubilised in 10% acetonitrile at a concentration of 0.02 μg/μL. A volume of 10 μL of these PLA2 solutions was incubated with 10 μL of each compound for 20 min at room temperature. […] The inhibition percentage was calculated by comparison with a control experiment (absence of compound).

[2] = target: T1, hG-IIA sPLA2 (Homo sapiens, UniProt P14555); assay: Inhibition of sPLA2 activity, colorimetric lecithin/red phenol assay, group IIA; format: biochemical
T1 sequence (P14555 21-144): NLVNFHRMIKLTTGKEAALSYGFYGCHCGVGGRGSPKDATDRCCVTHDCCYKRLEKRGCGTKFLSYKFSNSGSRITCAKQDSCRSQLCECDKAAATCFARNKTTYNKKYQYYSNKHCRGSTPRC
Description: as §3

[3] = target: T2, hG-V sPLA2 (Homo sapiens, UniProt P39877); assay: Inhibition of sPLA2 activity, colorimetric lecithin/red phenol assay, group V; format: biochemical
T2 sequence (P39877 21-138): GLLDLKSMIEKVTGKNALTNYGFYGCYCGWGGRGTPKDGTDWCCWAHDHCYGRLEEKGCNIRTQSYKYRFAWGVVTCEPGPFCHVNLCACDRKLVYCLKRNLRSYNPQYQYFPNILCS
Description: (§1) The test of inhibitory activity of sPLA2 was performed as described by Lobo de Araujo and Radvanyi[41]. Briefly, the substrate consisted of 3.5 mM lecithin in a mixture of 3 mM NaTDC “Sodium taurodeoxycholate”, 100 mM NaCl, 10 mM CaCl2, and 0.055 mM red phenol as colorimetric indicator in 100 ml H2O. The pH of the reaction mixture was adjusted to 7.6. The human group IB (pG-IB), IIA (hG-IIA), V (hG-V), X (hG-X), and XII (hG-XII) sPLA2 were solubilised in 10% acetonitrile at a concentration of 0.02 μg/μL. A volume of 10 μL of these PLA2 solutions was incubated with 10 μL of each compound for 20 min at room temperature. Then, 1 ml of the PLA2 substrate was added, and the kinetic of hydrolysis was followed during 5 min by reading the optical density at 558 nm. The inhibition percentage was calculated by comparison with a control experiment (absence of compound).
(§2) In order to evaluate the potential anti-inflammatory activity of the 12 studied compounds, we tested their inhibitory effects using several human sPLA2 isozymes, […], hG-V, hG-X, and hG-XII, involved in the inflammatory process and porcine pG-IB sPLA2 which hydrolyses dietary phospholipids.

[4] = target: T3, hG-X sPLA2 (Homo sapiens, UniProt O15496); assay: Inhibition of sPLA2 activity, colorimetric lecithin/red phenol assay, group X; format: biochemical
T3 sequence (O15496 43-165): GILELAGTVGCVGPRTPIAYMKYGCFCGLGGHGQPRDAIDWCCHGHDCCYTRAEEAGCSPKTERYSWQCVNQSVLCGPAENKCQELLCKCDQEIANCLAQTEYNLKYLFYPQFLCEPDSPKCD
Description: as §1, §2

[5] = target: T4, hG-XIIA sPLA2 (Homo sapiens, UniProt Q9BZM1); assay: Inhibition of sPLA2 activity, colorimetric lecithin/red phenol assay, group XII; format: biochemical
T4 sequence (Q9BZM1 23-189): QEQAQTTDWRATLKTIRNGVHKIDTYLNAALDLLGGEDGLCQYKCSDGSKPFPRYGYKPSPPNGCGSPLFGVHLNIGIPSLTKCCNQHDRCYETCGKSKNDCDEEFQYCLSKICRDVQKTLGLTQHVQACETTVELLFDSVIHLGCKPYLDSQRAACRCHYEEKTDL
Description: as §3

[6] = ± standard deviation, duplicate, read-out: IC50 (µM) Against Phospholipase pG-IB
[7] = ± standard deviation, duplicate, read-out: IC50 (µM) Against Phospholipase hG-IIA
[8] = ± standard deviation, duplicate, read-out: IC50 (µM) Against Phospholipase hG-V
[9] = ± standard deviation, duplicate, read-out: IC50 (µM) Against Phospholipase hG-X
[10] = ± standard deviation, duplicate, read-out: IC50 (µM) Against Phospholipase hG-XIIA

Sequence of pG-IB sPLA2 (P00592 23-146): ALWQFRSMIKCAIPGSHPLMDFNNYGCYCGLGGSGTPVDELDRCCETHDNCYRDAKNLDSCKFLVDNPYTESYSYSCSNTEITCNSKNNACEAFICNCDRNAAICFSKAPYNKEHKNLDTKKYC

Row | IC50 [1, 6] [µM] | IC50 [2, 7] [µM] | IC50 [3, 8] [µM] | IC50 [4, 9] [µM] | IC50 [5, 10] [µM] | melting point [°C] | Compound | IC50 [1] [µM] | IC50 [2] [µM] | IC50 [3] [µM] | IC50 [4] [µM] | IC50 [5] [µM]
1 | 9.31 ± 0.36 | 2.48 ± 0.28 | 1.46 ± 0.47 | 1.26 ± 0.05 | 3.04 ± 0.67 | 258 to 260 | COc1cc(/C=N/Nc2nc3ccccc3[nH]c2=O)cc(OC)c1OC [Compound 3a, (E)-3-(2-(3,4,5-trimethoxybenzylidene)hydrazinyl)quinoxalin-2(1H)-one] |  |  |  |  | 
2 | 13.3 ± 0.5 | 3.71 ± 0.27 | 9.45 ± 0.13 | 12.5 ± 0.87 | 6.75 ± 0.17 | 292 to 294 | O=c1[nH]c2ccccc2nc1N/N=C/c1ccc(O)cc1O [Compound 3c, (E)-3-(2-(2,4-dihydroxybenzylidene)hydrazinyl)quinoxalin-2(1H)-one] |  |  |  |  | 
3 | 13.5 ± 1.02 | 4.5 ± 0.33 | 5.7 ± 0.27 | 3 ± 0.63 | 10.5 ± 1.74 | 244 to 246 | O=c1[nH]c2ccccc2nc1N/N=C/c1ccc(Cl)c(Cl)c1 [Compound 3d, (E)-3-(2-(3,4-dichlorobenzylidene)hydrazinyl)quinoxalin-2(1H)-one] |  |  |  |  | 
4 | 10.7 ± 0.92 | 2.81 ± 0.33 | 6.28 ± 0.4 | 4.43 ± 1.03 | 3.81 ± 0.99 |  | O=c1[nH]c2ccccc2nc1N/N=C/c1cccs1 [Compound 3e, (E)-3-(2-(thiophen-2-ylmethylene)hydrazinyl)quinoxalin-2(1H)-one] |  |  |  |  | 
5 | 12.4 ± 0.03 | 1.9 ± 0.3 | 1.22 ± 0.3 | 0.33 ± 0.06 | 0.84 ± 0.07 |  | COc1cccc(/C=N/Nc2nc3ccccc3[nH]c2=O)c1 [Compound 3f, (E)-3-(2-(3-methoxybenzylidene)hydrazinyl)quinoxalin-2(1H)-one] |  |  |  |  | 
6 | 14.2 ± 1.22 | 13.05 ± 0.05 | 11.3 ± 0.08 | 12.2 ± 0.47 | 13.2 ± 0.21 | 227 to 229 | COc1cc(-c2nnc3c(=O)[nH]c4ccccc4n23)cc(OC)c1OC [Compound 4a, 1-(3,4,5-Trimethoxyphenyl)-[1,2,4]triazolo[4,3-a]quinoxalin-4(5H)-one] |  |  |  |  | 
7 | 14.8 ± 0.44 | 1.32 ± 0.16 | 1.05 ± 0.13 | 0.61 ± 0.03 | 0.91 ± 0.05 | > 300 | O=c1[nH]c2ccccc2n2c(-c3ccc(O)cc3O)nnc12 [Compound 4c, 1-(2,4-Dihydroxyphenyl)-[1,2,4]triazolo[4,3-a]quinoxalin-4(5H)-one] |  |  |  |  | 
8 | 14.5 ± 0.87 | 1.81 ± 0.04 | 3.04 ± 0.57 | 2.71 ± 0.07 | 1.41 ± 0.07 |  | O=c1[nH]c2ccccc2n2c(-c3ccc(Cl)c(Cl)c3)nnc12 [Compound 4d, 1-(3,4-Dichlorophenyl)-[1,2,4]triazolo[4,3-a]quinoxalin-4(5H)-one] |  |  |  |  | 
9 | 16.8 ± 0.93 | 16.8 ± 0.41 | 18.6 ± 0.56 | 17.9 ± 0.94 | 18.6 ± 1.33 |  | O=c1[nH]c2ccccc2n2c(-c3cccs3)nnc12 [Compound 4e, 1-(Thiophen-2-yl)-[1,2,4]triazolo[4,3-a]quinoxalin-4(5H)-one] |  |  |  |  | 
10 | 16 ± 1.71 | 17.1 ± 0.41 | 15.8 ± 0.85 | 14.4 ± 0.52 | 15.8 ± 1.29 | 286 to 288 | COc1cccc(-c2nnc3c(=O)[nH]c4ccccc4n23)c1 [Compound 4f, 1-(3-Methoxyphenyl)-[1,2,4]triazolo[4,3-a]quinoxalin-4(5H)-one] |  |  |  |  | 

Row | Compound | IC50 [1, 6] [µM] | IC50 [2, 7] [µM] | IC50 [3, 8] [µM] | IC50 [4, 9] [µM] | IC50 [5, 10] [µM] | melting point [°C] | IC50 [1] [µM] | IC50 [2] [µM] | IC50 [3] [µM] | IC50 [4] [µM] | IC50 [5] [µM]
11 | O=c1[nH]c2ccccc2nc1N/N=C/c1ccc([N+](=O)[O-])cc1[N+](=O)[O-] [Compound 3b, (E)-3-(2-(2,4-dinitrobenzylidene)hydrazinyl)quinoxalin-2(1H)-one] |  |  |  |  |  | 283 to 285 | 10.7 ± 0.67 | 5.36 ± 0.73 | 1.12 ± 0.31 | 2.54 ± 0.42 | 2.28 ± 0.08
12 | O=c1[nH]c2ccccc2n2c(-c3ccc([N+](=O)[O-])cc3[N+](=O)[O-])nnc12 [Compound 4b, 1-(2,4-Dinitrophenyl)-[1,2,4]triazolo[4,3-a]quinoxalin-4(5H)-one] |  |  |  |  |  | > 300 | 13.6 ± 0.7 | 0.76 ± 0.01 | 1.53 ± 0.14 | 1.05 ± 0.08 | 2.58 ± 0.43
13 | CC1(C)CC[C@]2(C(=O)O)CC[C@]3(C)C(=CC[C@@H]4[C@@]5(C)CC[C@H](O)C(C)(C)[C@@H]5CC[C@]43C)[C@@H]2C1 [Oleanolic acid, reference compound] |  |  | 16.4 ± 1.53 |  |  |  |  |  |  |  | 
